# Tests used:
# Test in all cases: Test D controlled growth environment herbicide test, pre- and postemergence
# Assay type in all cases: in vivo
# [1] = tested on: galium (catchweed bedstraw, Galium aparine)
# Summary of the method: (§1)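 Species sown in silt loam and sprayed preemergence, or grown in peat-based medium to 2–18 cm (1- to 4-leaf stage) and sprayed postemergence, with compounds in non-phytotoxic solvent plus surfactant. Visual injury scored versus controls after 14–21 d in a controlled environment, 0 (no effect) to 100 (complete control).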
# [2] = tested on: barley, spring (spring barley, Hordeum vulgare)
# Summary of the method: as §1
# [3] = tested on: canarygrass (Phalaris minor)
# Summary of the method: as §1
# [4] = tested on: wheat, spring (spring wheat, Triticum aestivum)
# Summary of the method: as §1
# [5] = tested on: buckwheat, wild (wild buckwheat, Polygonum convolvulus)
# Summary of the method: as §1
# [6] = tested on: chickweed (common chickweed, Stellaria media)
# Summary of the method: as §1
# [7] = tested on: kochia (Kochia scoparia)
# Summary of the method: as §1
# [8] = tested on: pigweed (Amaranthus retroflexus)
# Summary of the method: as §1
# [9] = tested on: field violet (Viola arvensis)
# Summary of the method: as §1
# [10] = tested on: Russian thistle (Salsola kali)
# Summary of the method: as §1
# [11] = tested on: wheat, winter (winter wheat, Triticum aestivum)
# Summary of the method: as §1
# [12] = tested on: oat, wild (wild oat, Avena fatua)
# Summary of the method: as §1
# [13] = tested on: oilseed rape (Brassica napus)
# Summary of the method: as §1
# [14] = Postemergence, 31 g ai/ha, scale 0 to 100 (0 no effect, 100 complete control)
# [15] = Postemergence, 125 g ai/ha, visual rating on scale 0 (no effect) to 100 (complete control), 14 to 21 d
# [16] = Postemergence, 250 g ai/ha, scale 0 to 100 (0 no effect, 100 complete control)
# [17] = Preemergence, 62 g ai/ha, scale 0 to 100 (0 no effect, 100 complete control)
# [18] = Preemergence, 125 g ai/ha, scale 0 to 100 (0 no effect, 100 complete control)
# [19] = Preemergence, 250 g ai/ha, scale 0 to 100, 0 no effect, 100 complete control
# [20] = postemergence, 62 g ai/ha, scale 0 to 100, 0 no effect, 100 complete control
smiles,measurement,setting,value
Cc1nn(C)c(=O)c(-c2c(C)sc3c(C)cc(Cl)cc23)c1O [Compound 35],Galium plant response rating,[1]; [14],98
same,"Plant response rating, Galium",[1]; [15],95
same,"Plant response rating, Galium",[1]; [16],100
same,"Plant response rating (scale of 0 to 100), Galium","[1]; Preemergence, 31 g ai/ha",80
same,"Plant response rating, Galium",[1]; [17],85
same,"Plant response rating, Galium",[1]; [18],95
same,"Plant response rating, Galium",[1]; [19],100
same,"Plant response rating, Galium",[1]; [20],98
same,"Plant response rating, Barley, Spring",[2]; [14],0
same,"Plant response rating, Barley, Spring",[2]; [15],10
same,"Plant response rating, Barley, Spring",[2]; [16],15
same,"Plant response rating (scale of 0 to 100), Barley, Spring","[2]; Preemergence, 31 g ai/ha",0
same,"Plant response rating, Barley, Spring",[2]; [17],0
same,"Plant response rating, Barley, Spring",[2]; [18],0
same,"Barley, Spring plant response rating",[2]; [19],0
same,"Plant response rating, Barley, Spring",[2]; [20],0
same,Canarygrass plant response rating,[3]; [14],20
same,"Plant response rating, Canarygrass",[3]; [15],70
same,"Plant response rating, Canarygrass",[3]; [16],80
same,"Plant response rating (scale of 0 to 100), Canarygrass","[3]; Preemergence, 31 g ai/ha",75
same,"Plant response rating, Canarygrass",[3]; [17],85
same,"Plant response rating, Canarygrass",[3]; [18],95
same,"Plant response rating, Canarygrass",[3]; [19],98
same,"Plant response rating, Canarygrass",[3]; [20],30
same,"Wheat, Spring plant response rating",[4]; [14],15
same,"Plant response rating, Wheat, Spring",[4]; [15],25
same,"Plant response rating, Wheat, Spring",[4]; [16],30
same,"Plant response rating (scale of 0 to 100), Wheat, Spring","[4]; Preemergence, 31 g ai/ha",0
same,"Plant response rating, Wheat, Spring",[4]; [17],0
same,"Plant response rating, Wheat, Spring",[4]; [18],5
same,"Plant response rating, Wheat, Spring",[4]; [19],30
same,"Plant response rating, Wheat, Spring",[4]; [20],20
same,"Buckwheat, Wild plant response rating",[5]; [14],95
same,"Plant response rating, Buckwheat, Wild",[5]; [15],100
same,"Plant response rating, Buckwheat, Wild",[5]; [16],100
same,"Plant response rating (scale of 0 to 100), Buckwheat, Wild","[5]; Preemergence, 31 g ai/ha",15
same,"Plant response rating, Buckwheat, Wild",[5]; [17],20
same,"Plant response rating, Buckwheat, Wild",[5]; [18],20
same,"Plant response rating, Buckwheat, Wild",[5]; [19],35
same,"Plant response rating, Buckwheat, Wild",[5]; [20],100
same,Chickweed plant response rating,[6]; [14],90
same,"Plant response rating, Chickweed",[6]; [15],100
same,"Plant response rating, Chickweed",[6]; [16],100
same,"Plant response rating (scale of 0 to 100), Chickweed","[6]; Preemergence, 31 g ai/ha",95
same,"Plant response rating, Chickweed",[6]; [17],95
same,"Plant response rating, Chickweed",[6]; [18],100
same,"Plant response rating, Chickweed",[6]; [19],100
same,"Plant response rating, Chickweed",[6]; [20],100
same,Kochia plant response rating,[7]; [14],25
same,"Plant response rating, Kochia",[7]; [15],65
same,"Plant response rating, Kochia",[7]; [16],70
same,"Plant response rating (scale of 0 to 100), Kochia","[7]; Preemergence, 31 g ai/ha",0
same,"Plant response rating, Kochia",[7]; [17],0
same,"Plant response rating, Kochia",[7]; [18],20
same,"Plant response rating, Kochia",[7]; [19],25
same,"Plant response rating, Kochia",[7]; [20],20
same,Pigweed plant response rating,[8]; [14],80
same,"Plant response rating, Pigweed",[8]; [15],85
same,"Plant response rating, Pigweed",[8]; [16],98
same,"Plant response rating (scale of 0 to 100), Pigweed","[8]; Preemergence, 31 g ai/ha",25
same,"Plant response rating, Pigweed",[8]; [17],95
same,"Plant response rating, Pigweed",[8]; [18],100
same,"Plant response rating, Pigweed",[8]; [19],100
same,"Plant response rating, Pigweed",[8]; [20],80
same,Field Violet plant response rating,[9]; [14],65
same,"Plant response rating, Field Violet",[9]; [15],75
same,"Plant response rating, Field Violet",[9]; [16],98
same,"Plant response rating (scale of 0 to 100), Field Violet","[9]; Preemergence, 31 g ai/ha",15
same,"Plant response rating, Field Violet",[9]; [17],75
same,"Plant response rating, Field Violet",[9]; [18],85
same,"Plant response rating, Field Violet",[9]; [19],100
same,"Plant response rating, Field Violet",[9]; [20],75
same,Russian Thistle plant response rating,[10]; [14],70
same,"Plant response rating, Russian Thistle",[10]; [15],85
same,"Plant response rating, Russian Thistle",[10]; [16],95
same,"Plant response rating (scale of 0 to 100), Russian Thistle","[10]; Preemergence, 31 g ai/ha",0
same,"Plant response rating, Russian Thistle",[10]; [17],0
same,"Plant response rating, Russian Thistle",[10]; [18],0
same,"Plant response rating, Russian Thistle",[10]; [19],25
same,"Plant response rating, Russian Thistle",[10]; [20],75
same,"Wheat, Winter plant response rating",[11]; [14],10
same,"Plant response rating, Wheat, Winter",[11]; [15],15
same,"Plant response rating, Wheat, Winter",[11]; [16],20
same,"Plant response rating (scale of 0 to 100), Wheat, Winter","[11]; Preemergence, 31 g ai/ha",0
same,"Plant response rating, Wheat, Winter",[11]; [17],0
same,"Plant response rating, Wheat, Winter",[11]; [18],0
same,"Plant response rating, Wheat, Winter",[11]; [19],10
same,"Plant response rating, Wheat, Winter",[11]; [20],15
same,"Oat, Wild plant response rating",[12]; [14],85
same,"Plant response rating, Oat, Wild",[12]; [15],85
same,"Plant response rating, Oat, Wild",[12]; [16],98
same,"Plant response rating (scale of 0 to 100), Oat, Wild","[12]; Preemergence, 31 g ai/ha",75
same,"Plant response rating, Oat, Wild",[12]; [17],80
same,"Plant response rating, Oat, Wild",[12]; [18],85
same,"Plant response rating, Oat, Wild",[12]; [19],95
same,"Plant response rating, Oat, Wild",[12]; [20],90
same,Oilseed Rape plant response rating,[13]; [14],95
same,"Plant response rating, Oilseed Rape",[13]; [15],100
same,"Plant response rating, Oilseed Rape",[13]; [16],100
same,"Plant response rating (scale of 0 to 100), Oilseed Rape","[13]; Preemergence, 31 g ai/ha",0
same,"Plant response rating, Oilseed Rape",[13]; [17],10
same,"Plant response rating, Oilseed Rape",[13]; [18],65
same,"Plant response rating, Oilseed Rape",[13]; [19],100
same,"Plant response rating, Oilseed Rape",[13]; [20],98
